Results reported in ChEMBL document CHEMBL2029232, “Identification of small-molecule inhibitors of the steroidogenic acute regulatory protein (STARD1) by structure-based design” (Bioorg Med Chem Lett, 2012).
Calls of active or inactive are those of the source. The calls are words filed in the database; no cut-off is given here.

What was measured:
[1] = Inhibition of 22R-hydroxycholesterol-induced steroidogenesis in mouse MA-10 cells assessed as progesterone synthesis per mg of protein at 10 uM after 2 hrs by RIA; type: cell-based; conditions: ma-10, 2 h
[2] = molecular target: T1, Steroidogenic acute regulatory protein, mitochondrial (Mus musculus) (UniProt P51557); experiment: Inhibition of STAR in mouse MA-10 cells assessed as inhibition of dbcAMP-stimulated […] at 10 uM after 2 hrs by RIA; type: cell-based
T1 sequence (whole entry): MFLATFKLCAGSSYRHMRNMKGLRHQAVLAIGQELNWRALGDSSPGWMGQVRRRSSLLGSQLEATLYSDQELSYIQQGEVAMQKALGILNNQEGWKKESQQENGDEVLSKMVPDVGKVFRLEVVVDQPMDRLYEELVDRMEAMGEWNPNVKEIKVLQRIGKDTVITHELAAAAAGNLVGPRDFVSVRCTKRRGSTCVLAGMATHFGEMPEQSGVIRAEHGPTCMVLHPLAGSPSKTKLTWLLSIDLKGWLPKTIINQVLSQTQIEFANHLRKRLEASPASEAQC

SMILES | Activity [1] | inhibition [2]
CC(=O)OCC(=O)[C@H]1CC[C@H]2[C@@H]3CC=C4C[C@@H](O)CC[C@]4(C)[C@H]3CC[C@]12C | 1301 ng | 50%
C[C@H](CCC(=O)O)[C@H]1CC[C@H]2[C@@H]3CC=C4C[C@@H](O)CC[C@]4(C)[C@H]3CC[C@]12C | – | inactive
C[C@]12CCC(=O)C=C1CC[C@@H]1[C@@H]2[C@@H](O)C[C@@]2(C)[C@H]1CC[C@]2(O)C(=O)CO | – | inactive
C[C@]12CC[C@H]3[C@@H](CC=C4C[C@@H](O)CC[C@@]43C)[C@@H]1C/C(=C/c1ccc(OC(F)F)cc1)[C@@H]2O | 923 ng | 50%
CC(=O)O[C@H]1CC[C@@]2(C)C(=CC[C@H]3[C@@H]4CC(O)[C@H]([C@H](C)OC(C)=O)[C@@]4(C)CC[C@@H]32)C1 (stereo partly drawn) | – | inactive
C[C@]12CC(O)[C@H]3[C@@H](CCC4=CC(=O)CC[C@@]43C)[C@@H]1CC[C@@H]2C(=O)O (stereo partly drawn) | – | inactive
